Experimental findings from patent US20230233425A1, “USE OF VOLATILE COMPOSITIONS TO LIMIT OR ELIMINATE THE PERCEPTION OF MALODOR” (Firmenich SA, priority 2017, published 2023) are described below.

The term IC50 denotes the concentration needed to halve the response being measured.

The target of assay [1] is T1, OR51E1 olfactory receptor (Homo sapiens, UniProt Q8TCB6).
T1 construct: expressed in transfected cells
T1 sequence (Q8TCB6 1-318): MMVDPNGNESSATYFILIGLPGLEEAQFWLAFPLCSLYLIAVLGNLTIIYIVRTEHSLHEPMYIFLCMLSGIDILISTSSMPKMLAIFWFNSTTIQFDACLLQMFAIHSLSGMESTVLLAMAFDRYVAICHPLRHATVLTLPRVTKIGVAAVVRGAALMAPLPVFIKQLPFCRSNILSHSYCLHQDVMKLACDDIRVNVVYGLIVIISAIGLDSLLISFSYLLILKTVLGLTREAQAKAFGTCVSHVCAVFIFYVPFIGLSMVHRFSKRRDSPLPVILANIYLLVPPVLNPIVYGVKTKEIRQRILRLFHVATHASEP
The experiment in a line: Butyric acid olfactory receptor antagonist cell-based dose-response vs butyric acid EC80. The following applies: for Emax: read-out: Inhibition (%).

Assay [2] deals with geonol receptors Olfr339, Olfr1487, Olfr1A1, OR11A1, Olfr96. The assay is described as follows: Antagonists of geonol receptors (Example 11). More on the design: Inhibition(%): concentration or dose not given beside the values. The conditions noted are these: Table 18. It is filed as cell-based, mouse and human.

Structures can show the parent of a compound that is named as a salt. Where two headings read alike, the source gives them in different places. Bounds are passed on as bounds.

For the molecule `CC(=O)OC(C)C1CC(C)C23CCC(CC12)C3` (stereo not drawn), in assay [1] (Table 21), the IC50 was found to be 97 µM and the “Inhibition(%)” value came out at 23%.
On to `CC(=O)OC(C)C1(C)CC(C)C23CCC(CC12)C3` (stereo not drawn), for which, in assay [1] (Table 21), the IC50 was found to be 54.8 µM and the “Inhibition(%)” value stood at 34%.
The matching figures for `CC(=O)C1(C)CC(C)C23CCC(CC12)C3` (stereo not drawn): 60.5 µM and 26%.
With `CC(=O)[C@@]1(C)C(C)[C@H](C)[C@@]23CC[C@H](CC12)C3` (stereo partly drawn), the “Inhibition(%)” value in assay [1] (Table 21) is given as 27%.
In the case of `CC1C(C)C23CCC(CC2C1(C)C=O)C3` (stereo not drawn), in assay [1] (Table 21), the IC50 is 270 µM and the “Inhibition(%)” value worked out at 28%.
For `CC1=CCC(C=CC(C)C(C)O)C1(C)C` (stereo not drawn), in assay [2], the 50% inhibitory concentration (IC50) was determined as 76 µM and the “Inhibition(%)” value turned out to be 33%.
On to `CC1=CCC2C(C1)C1CC2C2(C1)OC2C` (stereo not drawn), for which, in assay [2], the IC50 worked out at 281 µM and the “Inhibition(%)” value worked out at 45%.
`CC1(CO)CC1CC1CC2CC2(C)C1(C)C` (stereo not drawn): in assay [2], it took 21.3 µM to reach half-maximal inhibition (IC50) and the “Inhibition(%)” value is 34%.
In the case of `CC(=O)OCC1(C)C(C)C(C)C23CCC(CC12)C3` (stereo not drawn), in assay [1] (Table 21), the IC50 was determined as 60.8 µM and the “Inhibition(%)” value amounted to 27%.
Take `CCC1=CCCC(C)(C)[C@@]12C=C[C@@H](C)O2`: in assay [2], half-maximal inhibition (IC50) was put at 127 µM and the “Inhibition(%)” value is 47%.
Regarding `C[C@H]1CCC[C@]2(CCCC[C@@H]2C)[C@@H]1O`, in assay [1] (Table 20, spiro analogues), the concentration for half-maximal inhibition (IC50) amounted to 76.9 µM and the Emax worked out at 54%.
As to `CC1CCC2(O1)C(C)(C)CCCC2(C)O` (stereo not drawn), in assay [2], inhibition was half-maximal at 173 µM (IC50) and the “Inhibition(%)” value was found to be 40%.
The matching figures for `CC(=O)/C(C)=C/C1C(C)=CCCC1(C)C` (stereo not drawn): 1120 µM and 58%.
Turning to `CC(=O)OC1CC2CCC1(C)C2(C)C` (stereo not drawn), in assay [2], the midpoint of inhibition, the IC50, lay at 660 µM and the “Inhibition(%)” value is 84%.
As for `CC(=NO)C1(C)C(C)C(C)[C@]23CC[C@H](CC12)C3` (stereo partly drawn), in assay [1] (Table 21), the “Inhibition(%)” value turned out to be 81%.
As for `CC(=NO)C1C(C)C(C)C23CCC(CC12)C3` (stereo not drawn), in assay [1] (Table 21), the IC50 was found to be 76.6 µM and the Emax turned out to be 19%.
Take `CC1CC(C)(C=NO)C2C[C@H]3CC[C@]12C3` (stereo partly drawn): the “Inhibition(%)” value in assay [1] (Table 21) is recorded as 38%.
Consider “2,4,8-trimethylspiro[5.5]undec-3-en-11-ol; 2,9,11-trimethylspiro[5.5]undec-9-en-5-ol”, for which, in assay [1] (Table 20, spiro analogues), inhibition was half-maximal at 117 µM (IC50) and the “Inhibition(%)” value is on record as 70%.
Turning to “3,10,10-trimethylspiro[5.5]undec-3-en-11-ol; 4,10,10-trimethylspiro[5.5]undec-3-en-11-ol”, in assay [1] (Table 20, spiro analogues), the IC50 is over 600 µM and the “Inhibition(%)” value is 121%.
For “4,10,10,11-tetramethylspiro[5.5]undec-2-en-11-ol; 5,10,10,11-tetramethylspiro[5.5]undec-3-en-11-ol”, in assay [1] (Table 20, spiro analogues), the IC50 was found to be 47.2 µM and the “Inhibition(%)” value amounted to 94%.
With `CC(=O)OC(C1CCCCC1C)C(C)(C)C` (racemic) [(1RS)-2,2-dimethyl-1-[(1SR,2SR)-2-methylcyclohexyl]propyl acetate], in assay [1] (Table 20, spiro analogues), the “Inhibition(%)” value was found to be 86%.
With `C=C1C(C)(C)CCCC12CC1(C)OC1(C)C2` (stereo not drawn) [1,1′,1′,5-tetramethyl-2′-methylidenespiro[6-oxabicyclo[3.1.0]hexane-3,3′-cyclohexane]], in assay [1] (Table 20, spiro analogues), half-maximal inhibition (IC50) required 75.7 µM and the Emax stood at 37%.
With `CC1C=CCC(C)C1C(O)C(C)(C)C` (stereo not drawn) [1-(2,6-dimethylcyclohex-3-en-1-yl)-2,2-dimethylpropan-1-ol], in assay [1] (Table 20, spiro analogues), it took 321 µM to reach half-maximal inhibition (IC50) and the Emax came to 31%.
`C=CCC1(OC)C(C)CCCC1C` (stereo not drawn) [1-methoxy-2,6-dimethyl-1-prop-2-enylcyclohexane]: in assay [1] (Table 20, spiro analogues), the midpoint of inhibition, the IC50, lay at 100 µM and the Emax was determined as 61%.
For `C=C(C)CC1(CC(=C)C)CCC(C)(C)C1O` (stereo not drawn) [2,2-dimethyl-5,5-bis(2-methylprop-2-enyl)cyclopentan-1-ol], in assay [1] (Table 20, spiro analogues), half-maximal inhibition (IC50) required 35.1 µM and the Emax was determined as 119%.
As for `C=C(C)CC1(CC(=C)C)CCC(C)(C)C1=O` [2,2-dimethyl-5,5-bis(2-methylprop-2-enyl)cyclopentan-1-one], in assay [1] (Table 20, spiro analogues), half-maximal inhibition (IC50) required 51.7 µM and the Emax stood at 82%.
In the case of `C=C(C)CC1(CC(=C)C)CCCC(C)(C)C1O` (stereo not drawn) [2,2-dimethyl-6,6-bis(2-methylprop-2-enyl)cyclohexan-1-ol], in assay [1] (Table 20, spiro analogues), it took 125 µM to reach half-maximal inhibition (IC50) and the Emax was determined as 110%.
The matching figures for `CC1=C(C)CC2(CCC(C)(C)C2=O)C1` [2,3,8,8-tetramethylspiro[4.4]non-2-en-9-one]: 198 µM and 10%.
Take `CC1CC2(CCCC(C)(C)C2O)CC1C` (stereo not drawn) [2,3,9,9-tetramethylspiro[4.5]decan-10-ol]: in assay [1] (Table 20, spiro analogues), half-maximal inhibition (IC50) required 120 µM and the Emax was 12%.
In the same order, the values of `CC1=CC(C)C2(CCCC(C)(C)C2O)C1` (stereo not drawn) [2,4,9,9-tetramethylspiro[4.5]dec-2-en-10-ol] are 81.6 µM and 22%.
Take `CC1=CC(C)C2(CCCC(C)(C)C2=O)C1` (stereo not drawn) [2,4,9,9-tetramethylspiro[4.5]dec-2-en-10-one]: in assay [1] (Table 20, spiro analogues), the IC50 is 110 µM and the Emax is 63%.
Consider `C=CCC1(C(C)C=C)CCCC(C)(C)C1=O` (stereo not drawn) [2-but-3-en-2-yl-6,6-dimethyl-2-prop-2-enylcyclohexan-1-one], for which, in assay [1] (Table 20, spiro analogues), the IC50 worked out at 76.4 µM and the Emax was found to be 115%.
Consider `CC1=CCC2(CCCCC2O)C(C(C)C)C1` (stereo not drawn) [3-methyl-5-propan-2-ylspiro[5.5]undec-2-en-11-ol], for which, in assay [1] (Table 20, spiro analogues), half-maximal inhibition (IC50) was put at 366 µM and the Emax turned out to be 144%.
Regarding `CC1C=CCC12CCCC(C)(C)C2=O` (stereo not drawn) [4,9,9-trimethylspiro[4.5]dec-2-en-10-one], in assay [1] (Table 20, spiro analogues), the IC50 was found to be 268 µM and the Emax stood at 102%.
For `COC1C(C)(C)CCC12CCCC2` (stereo not drawn) [4-methoxy-3,3-dimethylspiro[4.4]nonane], in assay [1] (Table 20, spiro analogues), inhibition was half-maximal at 337 µM (IC50) and the Emax was determined as 105%.
As to `CC1(C)CCCC2(CC=CC2)C1O` (stereo not drawn) [9,9-dimethylspiro[4.5]dec-2-en-10-ol], in assay [1] (Table 20, spiro analogues), the IC50 was 44.1 µM and the Emax was 91%.
As for `CC1(C)CCCC2(CC=CC2)C1=O` [9,9-dimethylspiro[4.5]dec-2-en-10-one], in assay [1] (Table 20, spiro analogues), the IC50 was 135 µM and the Emax worked out at 23%.
In the same order, the values of `COC1C(C)(C)CCC12CC=CC2` (stereo not drawn) [9-methoxy-8,8-dimethylspiro[4.4]non-2-ene] are 238 µM and 100%.
Take `COC1C(C)(C)CCCC12CC=CC2` (stereo not drawn) [10-methoxy-9,9-dimethylspiro[4.5]dec-2-ene]: in assay [1] (Table 20, spiro analogues), the concentration for half-maximal inhibition (IC50) was found to be 120 µM and the Emax turned out to be 33%.
With `CC1CCCCC12CCCCC2O` (stereo not drawn) [11-methylspiro[5.5]undecan-5-ol], in assay [1] (Table 20, spiro analogues), it took 68.8 µM to reach half-maximal inhibition (IC50) and the Emax was 52%.
For `CC(=O)OC1C(C)(C)CCCC12CC(C)(C)C(C)(C)C2` (stereo not drawn) [(2,2,3,3,9,9-hexamethylspiro[4.5]decan-10-yl) acetate], in assay [1] (Table 20, spiro analogues), the IC50 stood at 425 µM and the Emax turned out to be 39%.
As to `CC1=C(C)CC2(CCCC(C)(C)C2OC=O)C1` (stereo not drawn) [(2,3,9,9-tetramethylspiro[4.5]dec-2-en-10-yl) formate], in assay [1] (Table 20, spiro analogues), inhibition was half-maximal at 25.9 µM (IC50) and the Emax is 69%.
Consider `CC(=O)OC1C(C)(C)CCCC12CC(C)=CC2C` (stereo not drawn) [(2,4,9,9-tetramethylspiro[4.5]dec-2-en-10-yl) acetate], for which, in assay [1] (Table 20, spiro analogues), the IC50 is 34.8 µM and the Emax amounted to 131%.
In the case of `C/C=C/C(=O)C1=C(C)CCCC1(C)C` [(2E)-1-(2,6,6-trimethyl-1-cyclohexen-1-yl)-2-buten-1-one], in assay [1] (butyric acid at EC80, Table 5), it took 184 µM to reach half-maximal inhibition (IC50).
For `CC(=O)OC1C(C)(C)CCCC12CC=C(C)CC2C` (stereo not drawn) [(3,5,10,10-tetramethylspiro[5.5]undec-2-en-11-yl) acetate], in assay [1] (Table 20, spiro analogues), the IC50 was 71.4 µM and the Emax was 104%.
In the same order, the values of `CC(=O)OC1C(C)(C)CCCC12CC=CC2C` (stereo not drawn) [(4,9,9-trimethylspiro[4.5]dec-2-en-10-yl) acetate] are 48.5 µM and 106%.
In the case of `CC1CC=CCC12CCCC(C)(C)C2OC=O` (stereo not drawn) [(5,10,10-trimethylspiro[5.5]undec-2-en-11-yl) formate], in assay [1] (Table 20, spiro analogues), the IC50 stood at 44.4 µM and the Emax amounted to 129%.
For the molecule `CC(=O)OC1C(C)(C)CCC12CC=CC2` (stereo not drawn) [(8,8-dimethylspiro[4.4]non-2-en-9-yl) acetate], in assay [1] (Table 20, spiro analogues), 488 µM corresponded to half-maximal inhibition (IC50) and the Emax was found to be 107%.
In the case of `CC(=O)OC1C(C)(C)CCCC12CC=CC2` (stereo not drawn) [(9,9-dimethylspiro[4.5]dec-2-en-10-yl) acetate], in assay [1] (Table 20, spiro analogues), the IC50 amounted to 90.3 µM and the Emax was determined as 32%.
As for `CCOCOC1CCCCCCCCCCC1` [(ethoxymethoxy)cyclododecane], the IC50 in assay [1] (butyric acid at EC80, Table 5) worked out at 69.2 µM.
On to `C[C@@H]1CCCCCCCCCCCCC(=O)C1` [(−)-(3R)-3-methyl-1-cyclopentadecanone], for which the IC50 in assay [1] (butyric acid at EC80, Table 5) was found to be 27.3 µM.
In assay [1] (butyric acid at EC80, Table 5), `COC1CCCCCCCCCCC1` [Methoxycyclododecane] registered an IC50 of 84.1 µM.
Turning to `CC(=O)OC(C1C(C)C=C(C)CC1C)C(C)(C)C` (stereo not drawn) [[2,2-dimethyl-1-(2,4,6-trimethylcyclohex-3-en-1-yl)propyl] acetate], in assay [1] (Table 20, spiro analogues), the IC50 is 52.6 µM and the Emax amounted to 89%.
In the case of `CC(=O)OC(C1C(C)CC(C)CC1C)C(C)(C)C` (stereo not drawn) [[2,2-dimethyl-1-(2,4,6-trimethylcyclohexyl)propyl] acetate], in assay [1] (Table 20, spiro analogues), the IC50 was found to be 242 µM and the Emax was determined as 101%.
Consider “methyl 1-(3-methylbut-2-enyl)cyclohex-2-ene-1-carboxylate, methyl 1-(3-methylbut-2-enyl)cyclohex-3-ene-1-carboxylate, or mixtures thereof”, for which, in assay [1] (Table 20, spiro analogues), the IC50 stood at 577 µM and the “Inhibition(%)” value came to 38%.
